# Target: T1, Polyunsaturated fatty acid lipoxygenase ALOX12 (Homo sapiens, UniProt P18054)
# T1 sequence (P18054 whole entry): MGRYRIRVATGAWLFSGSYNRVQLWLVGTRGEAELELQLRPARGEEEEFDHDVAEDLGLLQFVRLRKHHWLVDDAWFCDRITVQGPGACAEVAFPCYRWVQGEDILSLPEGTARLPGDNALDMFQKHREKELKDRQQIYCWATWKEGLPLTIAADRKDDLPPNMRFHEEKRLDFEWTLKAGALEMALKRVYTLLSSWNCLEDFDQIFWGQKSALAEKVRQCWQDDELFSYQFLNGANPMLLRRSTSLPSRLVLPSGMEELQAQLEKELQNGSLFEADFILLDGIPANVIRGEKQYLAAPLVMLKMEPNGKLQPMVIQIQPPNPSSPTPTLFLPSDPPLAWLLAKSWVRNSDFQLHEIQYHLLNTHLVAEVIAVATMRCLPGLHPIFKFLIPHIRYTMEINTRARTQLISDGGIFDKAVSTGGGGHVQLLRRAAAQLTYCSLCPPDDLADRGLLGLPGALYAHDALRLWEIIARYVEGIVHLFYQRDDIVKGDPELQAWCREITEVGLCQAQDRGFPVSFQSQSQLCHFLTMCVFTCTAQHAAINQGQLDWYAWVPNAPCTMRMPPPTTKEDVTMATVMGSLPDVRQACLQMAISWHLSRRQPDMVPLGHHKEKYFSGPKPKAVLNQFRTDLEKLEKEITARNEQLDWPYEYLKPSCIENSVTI
# Assay: Competitive inhibition of human platelet-type N-terminally His6-tagged 12-lipoxygenase assessed as 12-HPETE formation using arachidonic acid by Michaelis-Menten equation analysis
smiles,measurement,value
CC(=O)NC(c1cccs1)c1cc(Cl)c2cccnc2c1O (stereo unspecified),Ki,700 nM

# Reference: BindingDB's records for doi:10.1021/jm2005089 (National Human Genome Research Institute, 2011)
